Patent publication US8415469B2, “Compounds and methods for kinase modulation, and indications therefor” (Plexxikon Inc., priority 2005, dated 2013)

Tests used:
Format in all cases: biochemical
IKK beta = molecular target: T1, IKK beta (Homo sapiens, UniProt O14920); assay: AlphaScreen kinase assay, IKK beta; conditions: read-out: IC50, activity toward kinase IKK beta
T1 sequence (O14920 1-756): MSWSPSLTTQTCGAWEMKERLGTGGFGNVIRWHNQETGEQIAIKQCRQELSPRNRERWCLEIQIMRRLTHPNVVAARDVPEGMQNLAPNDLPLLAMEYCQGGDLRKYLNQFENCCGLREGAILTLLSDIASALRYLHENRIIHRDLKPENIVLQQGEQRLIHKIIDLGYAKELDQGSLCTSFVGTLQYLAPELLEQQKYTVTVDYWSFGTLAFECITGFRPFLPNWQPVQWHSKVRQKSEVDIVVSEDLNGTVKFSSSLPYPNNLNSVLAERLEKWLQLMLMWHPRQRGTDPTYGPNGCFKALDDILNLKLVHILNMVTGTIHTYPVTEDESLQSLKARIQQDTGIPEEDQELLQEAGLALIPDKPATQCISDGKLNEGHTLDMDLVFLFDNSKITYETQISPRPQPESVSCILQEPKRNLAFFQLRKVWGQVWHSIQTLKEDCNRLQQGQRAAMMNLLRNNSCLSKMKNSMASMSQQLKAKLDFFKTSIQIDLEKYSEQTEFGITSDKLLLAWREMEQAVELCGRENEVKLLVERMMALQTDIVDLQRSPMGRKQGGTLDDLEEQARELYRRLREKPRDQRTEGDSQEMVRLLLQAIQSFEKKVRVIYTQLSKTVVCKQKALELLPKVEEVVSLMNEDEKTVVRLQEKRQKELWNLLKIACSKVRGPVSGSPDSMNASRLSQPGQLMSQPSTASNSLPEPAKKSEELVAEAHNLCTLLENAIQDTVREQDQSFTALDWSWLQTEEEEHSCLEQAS

Ret = molecular target: T2, Ret (Homo sapiens, UniProt P07949); assay: AlphaScreen kinase assay, Ret; conditions: read-out: IC50, activity toward kinase Ret
T2 construct: P1378.pET-SF BI-PTP RET H661-R1012 HIS; made in house
T2 sequence (P07949 with tags, fused parts or gaps): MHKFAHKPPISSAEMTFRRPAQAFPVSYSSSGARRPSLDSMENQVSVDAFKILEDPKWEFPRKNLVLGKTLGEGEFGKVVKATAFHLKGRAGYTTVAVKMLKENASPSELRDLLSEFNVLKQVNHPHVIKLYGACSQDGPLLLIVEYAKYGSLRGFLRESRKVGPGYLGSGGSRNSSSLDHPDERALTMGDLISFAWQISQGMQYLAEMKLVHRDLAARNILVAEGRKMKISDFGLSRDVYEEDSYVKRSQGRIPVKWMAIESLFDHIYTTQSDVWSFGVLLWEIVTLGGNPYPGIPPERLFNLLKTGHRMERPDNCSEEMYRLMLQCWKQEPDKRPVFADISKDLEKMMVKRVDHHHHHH

B-Raf V600E = molecular target: T3, B-Raf V600E (Homo sapiens, UniProt P15056, V600E); assay: AlphaScreen kinase assay, B-Raf V600E; conditions: read-out: IC50, activity toward kinase B-Raf V600E
T3 construct: P4254. pFastBacBD-CDC37 BRAF D437-K722-X, V600E; His6 with pFastBac HT leader (TEV site) (N); made in house; host or cells: Sf9 (baculovirus; chaperone CDC37 co-expressed)
T3 sequence (P15056 with tags, fused parts or gaps V600E): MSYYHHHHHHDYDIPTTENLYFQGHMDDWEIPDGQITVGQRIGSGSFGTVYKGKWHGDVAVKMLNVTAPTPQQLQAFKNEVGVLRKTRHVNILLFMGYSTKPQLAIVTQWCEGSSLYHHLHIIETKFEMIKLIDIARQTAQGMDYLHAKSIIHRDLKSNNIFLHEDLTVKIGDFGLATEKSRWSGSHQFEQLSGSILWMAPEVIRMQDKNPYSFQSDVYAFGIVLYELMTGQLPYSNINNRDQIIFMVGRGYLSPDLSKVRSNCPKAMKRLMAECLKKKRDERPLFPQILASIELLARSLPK

Gsk3β = Gsk3β (Homo sapiens, UniProt P49841); assay: AlphaScreen kinase assay, Gsk3β; conditions: read-out: IC50, activity toward kinase Gsk3β
Chain of Gsk3β (P49841 whole entry): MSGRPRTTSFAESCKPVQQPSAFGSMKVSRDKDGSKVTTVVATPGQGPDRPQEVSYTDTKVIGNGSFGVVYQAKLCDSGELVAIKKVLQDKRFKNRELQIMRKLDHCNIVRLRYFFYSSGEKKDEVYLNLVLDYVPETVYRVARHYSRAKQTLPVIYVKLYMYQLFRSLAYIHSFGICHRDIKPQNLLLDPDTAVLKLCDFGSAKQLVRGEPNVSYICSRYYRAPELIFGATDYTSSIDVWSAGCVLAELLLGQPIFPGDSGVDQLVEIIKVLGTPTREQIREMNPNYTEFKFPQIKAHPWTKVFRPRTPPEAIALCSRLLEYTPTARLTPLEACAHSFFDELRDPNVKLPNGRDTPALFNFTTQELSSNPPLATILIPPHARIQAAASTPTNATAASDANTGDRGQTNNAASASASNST
Outline: (§1)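 Peptide phosphorylation detected by proximity: streptavidin donor beads bind biotinylated substrate, acceptor beads carry antibody to phosphorylated substrate, singlet oxygen transfer gives emission. Dose-response over 8 points (1:3 steps); stocks 20 mM in DMSO.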

Plk1 = Plk1 (Homo sapiens, UniProt P53350); assay: AlphaScreen kinase assay, Plk1; conditions: read-out: IC50, activity toward kinase Plk1
Chain of Plk1 (P53350 whole entry): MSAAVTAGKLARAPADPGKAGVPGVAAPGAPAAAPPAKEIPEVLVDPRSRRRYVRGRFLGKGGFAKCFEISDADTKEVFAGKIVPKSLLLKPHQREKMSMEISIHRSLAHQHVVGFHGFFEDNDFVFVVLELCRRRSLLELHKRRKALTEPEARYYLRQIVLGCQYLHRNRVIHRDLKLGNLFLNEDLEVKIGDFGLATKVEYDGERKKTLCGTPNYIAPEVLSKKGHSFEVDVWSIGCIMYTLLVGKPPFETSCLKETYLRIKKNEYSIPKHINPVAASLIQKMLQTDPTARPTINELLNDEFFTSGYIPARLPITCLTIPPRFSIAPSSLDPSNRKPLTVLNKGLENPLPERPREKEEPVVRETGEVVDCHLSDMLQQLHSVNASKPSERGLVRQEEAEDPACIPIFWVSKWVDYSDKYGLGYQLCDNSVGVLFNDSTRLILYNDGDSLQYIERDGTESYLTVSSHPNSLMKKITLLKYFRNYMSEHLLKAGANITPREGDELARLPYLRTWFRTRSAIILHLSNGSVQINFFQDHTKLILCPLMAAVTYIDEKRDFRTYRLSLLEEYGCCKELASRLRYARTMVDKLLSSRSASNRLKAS
From the text: (§2) AlphaScreen assay was used to screen additional kinases. The assay is similarly dependent on the phosphorylation of a peptide substrate. In this assay, an antibody that recognizes phosphorylated substrate is bound to an acceptor bead. The peptide substrate is attached to biotin, which binds to a donor head that contains streptavidin. Thus phosphorylated substrate is bound by antibody and streptavidin, bringing the donor and acceptor heads into close proximity when kinase is not inhibited. The donor produces singlet oxygen which results in emission from the acceptor when they are in close proximity. Conversely, when kinase is inhibited, the donor and acceptor beads are not associated and the emission from the acceptor is reduced.
(§3) AlphaScreen assays were done using compounds dissolved in DMSO to a concentration of 20 mM. The compounds were diluted accordingly to the desired final concentrations in each sample well, using 1:3 serial dilution for a total of 8 concentration points.

Btk = molecular target: T4, Btk (Homo sapiens, UniProt Q06187); assay: Z'-Lyte FRET kinase assay (Invitrogen), Btk; conditions: read-out: IC50, activity toward kinase Btk
T4 construct: purchased Invitrogen (assay run by Invitrogen)
T4 sequence (Q06187 whole entry): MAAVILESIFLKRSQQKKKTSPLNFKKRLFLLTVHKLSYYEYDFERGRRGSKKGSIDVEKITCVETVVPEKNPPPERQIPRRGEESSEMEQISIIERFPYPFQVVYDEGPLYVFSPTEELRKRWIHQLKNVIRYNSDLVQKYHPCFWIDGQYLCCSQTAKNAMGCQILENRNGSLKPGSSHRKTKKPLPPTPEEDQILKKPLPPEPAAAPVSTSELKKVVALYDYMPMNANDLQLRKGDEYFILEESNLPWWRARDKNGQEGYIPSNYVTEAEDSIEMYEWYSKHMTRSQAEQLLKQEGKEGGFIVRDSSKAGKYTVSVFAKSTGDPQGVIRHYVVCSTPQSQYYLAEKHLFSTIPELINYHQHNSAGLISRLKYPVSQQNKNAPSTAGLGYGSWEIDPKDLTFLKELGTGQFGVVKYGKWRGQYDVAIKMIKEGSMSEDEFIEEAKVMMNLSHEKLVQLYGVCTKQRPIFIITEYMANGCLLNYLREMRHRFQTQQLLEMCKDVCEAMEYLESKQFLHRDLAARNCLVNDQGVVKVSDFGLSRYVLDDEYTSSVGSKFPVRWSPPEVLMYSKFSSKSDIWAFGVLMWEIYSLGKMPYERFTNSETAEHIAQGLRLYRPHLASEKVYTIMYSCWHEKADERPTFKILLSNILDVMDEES
From the text: For example, direct radiometric, indirect FRET or AlphaScreen assays may be used to assess the level of phosphorylation of a substrate in the presence of test compounds in order to determine the inhibitory affect of the compound on the kinase. […] For these assays, compounds of the invention were screened by Invitrogen using Z′-Lyte™ kinase assay.
Briefly, the Invitrogen kinase assay involves use of a specific peptide substrate optimized for each kinase, containing a fluorophore at each end that make up the FRET pair. The peptide sensitivity to proteolytic cleavage depends on phosphorylation of the peptide. Non-phosphorylated peptide is cleaved by a protease while peptide phosphorylated by the kinase is not cleaved. Cleavage of the peptide disrupts the FRET between the donor (coumarin) and acceptor (fluorescein) fluorophores, resulting in an increase in the ratio of donor emission to acceptor emission. The emission ratio of coumarin to fluorescein is used to assess the reaction progress. […] Thus, the assay involves a kinase reaction in the presence of varying concentrations of a given compound, a development reaction with site specific protease, and detection of the fluorescent emission ratio of coumarin and fluorscein. […] Reaction conditions for each kinase are determined to provide optimal reaction times, incubation temperature, kinase and ATP concentrations. Test samples are made up in 1× kinase buffer (50 mM HEPES pH 7.5, 50 mM MgCl2, 5 mM EGTA, 0.05% BRIJ-35) and compound at desired concentration prepared in DMSO such that the final DMSO is 1%. […] All kinase except for MAP2K1 were at 10 μM ATP in the kinase reaction, while MAP2K1 was at 100 μM. Samples are mixed and the kinase reaction is incubated 1 hour at room temperature, after which 5 μl of development solution is added and mixed. After incubation for another 1 hour at room temperature, 5 μl of stop reagent is added to each sample and mixed. The fluorescence signals are measured to determine the emission ratio.

Kdr = molecular target: T5, Kdr (Homo sapiens, UniProt P35968); assay: Z'-Lyte FRET kinase assay (Invitrogen), Kdr; conditions: read-out: IC50, activity toward kinase Kdr
T5 construct: purchased Invitrogen (assay run by Invitrogen)
T5 sequence (P35968 20-1356): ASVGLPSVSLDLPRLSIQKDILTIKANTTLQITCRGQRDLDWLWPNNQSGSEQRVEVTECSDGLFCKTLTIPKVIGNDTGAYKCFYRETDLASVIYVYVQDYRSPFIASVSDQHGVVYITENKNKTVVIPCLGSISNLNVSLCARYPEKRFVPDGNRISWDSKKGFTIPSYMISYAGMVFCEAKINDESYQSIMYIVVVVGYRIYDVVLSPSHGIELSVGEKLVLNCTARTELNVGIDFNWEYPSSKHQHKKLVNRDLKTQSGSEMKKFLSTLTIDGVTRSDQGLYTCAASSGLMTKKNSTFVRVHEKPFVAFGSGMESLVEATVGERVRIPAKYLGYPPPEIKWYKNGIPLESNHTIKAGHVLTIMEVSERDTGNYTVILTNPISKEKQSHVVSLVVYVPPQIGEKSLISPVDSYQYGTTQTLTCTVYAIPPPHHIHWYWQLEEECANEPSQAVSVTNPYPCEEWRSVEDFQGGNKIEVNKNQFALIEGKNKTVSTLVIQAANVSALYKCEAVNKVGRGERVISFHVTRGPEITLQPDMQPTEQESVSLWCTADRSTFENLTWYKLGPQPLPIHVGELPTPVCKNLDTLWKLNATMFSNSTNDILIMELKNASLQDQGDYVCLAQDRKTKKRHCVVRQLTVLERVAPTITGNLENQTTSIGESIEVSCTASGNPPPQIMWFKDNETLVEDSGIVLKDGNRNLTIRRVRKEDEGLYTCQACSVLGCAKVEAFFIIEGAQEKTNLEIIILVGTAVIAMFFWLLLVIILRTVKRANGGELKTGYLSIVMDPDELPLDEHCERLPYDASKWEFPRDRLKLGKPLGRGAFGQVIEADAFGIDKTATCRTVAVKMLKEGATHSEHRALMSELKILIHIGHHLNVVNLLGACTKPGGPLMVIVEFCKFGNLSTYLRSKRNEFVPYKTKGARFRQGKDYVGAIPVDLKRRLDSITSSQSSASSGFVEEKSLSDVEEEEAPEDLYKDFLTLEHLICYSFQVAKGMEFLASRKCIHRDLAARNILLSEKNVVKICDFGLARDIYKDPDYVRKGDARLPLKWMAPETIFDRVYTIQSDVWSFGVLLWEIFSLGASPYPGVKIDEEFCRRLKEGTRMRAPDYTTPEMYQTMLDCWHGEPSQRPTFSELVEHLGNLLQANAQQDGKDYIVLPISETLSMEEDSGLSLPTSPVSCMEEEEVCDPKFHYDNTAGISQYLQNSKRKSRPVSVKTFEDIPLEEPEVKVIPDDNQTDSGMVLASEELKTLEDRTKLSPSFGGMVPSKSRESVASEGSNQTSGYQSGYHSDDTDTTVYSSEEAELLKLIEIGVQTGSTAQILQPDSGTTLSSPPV

Stk6 = molecular target: T6, Stk6 (Homo sapiens, UniProt O14965); assay: Z'-Lyte FRET kinase assay (Invitrogen), Stk6; conditions: read-out: IC50, activity toward kinase Stk6
T6 construct: purchased Invitrogen (Carlsbad, Calif.), screening service
T6 sequence (O14965 1-403): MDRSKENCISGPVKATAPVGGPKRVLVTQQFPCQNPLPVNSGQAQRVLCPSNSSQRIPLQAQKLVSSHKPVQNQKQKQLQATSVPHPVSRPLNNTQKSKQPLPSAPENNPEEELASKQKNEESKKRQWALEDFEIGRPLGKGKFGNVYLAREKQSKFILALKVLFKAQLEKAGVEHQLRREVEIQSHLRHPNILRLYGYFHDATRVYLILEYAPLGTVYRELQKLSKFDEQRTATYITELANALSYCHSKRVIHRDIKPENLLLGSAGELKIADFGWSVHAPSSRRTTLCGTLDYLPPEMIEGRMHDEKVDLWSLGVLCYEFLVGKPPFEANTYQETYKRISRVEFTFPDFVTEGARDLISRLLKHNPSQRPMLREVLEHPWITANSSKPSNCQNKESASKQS

Zap70 = molecular target: T7, Zap70 (Homo sapiens, UniProt P43403); assay: AlphaScreen kinase assay, Zap70; conditions: read-out: IC50, activity toward kinase Zap70
T7 construct: P1868.pFastBac1 ZAP70 D327-G606 HIS, WT; His7 (HHHHHHH) (C); made in house
T7 sequence (P43403 with tags, fused parts or gaps): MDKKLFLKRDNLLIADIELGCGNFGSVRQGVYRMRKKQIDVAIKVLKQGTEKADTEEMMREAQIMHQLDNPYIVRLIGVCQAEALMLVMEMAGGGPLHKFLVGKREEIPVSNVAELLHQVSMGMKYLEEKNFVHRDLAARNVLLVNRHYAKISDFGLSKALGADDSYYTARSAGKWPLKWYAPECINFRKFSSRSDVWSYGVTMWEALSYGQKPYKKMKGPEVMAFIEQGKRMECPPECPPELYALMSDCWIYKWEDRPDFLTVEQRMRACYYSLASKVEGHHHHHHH
Outline: as §1

Kit = molecular target: T8, Kit (Homo sapiens, UniProt P10721); assay: AlphaScreen kinase assay, Kit; conditions: read-out: IC50, activity toward kinase Kit
T8 construct: P1332.N6 BI PTP KIT M552-K948-X COD; His6 (N); made in house; host or cells: E. coli (PTP1B co-expressed)

Jak3 = molecular target: T9, Jak3 (Homo sapiens, UniProt P52333); assay: AlphaScreen kinase assay, Jak3; conditions: read-out: IC50, activity toward kinase Jak3
T9 sequence (P52333 1-1124): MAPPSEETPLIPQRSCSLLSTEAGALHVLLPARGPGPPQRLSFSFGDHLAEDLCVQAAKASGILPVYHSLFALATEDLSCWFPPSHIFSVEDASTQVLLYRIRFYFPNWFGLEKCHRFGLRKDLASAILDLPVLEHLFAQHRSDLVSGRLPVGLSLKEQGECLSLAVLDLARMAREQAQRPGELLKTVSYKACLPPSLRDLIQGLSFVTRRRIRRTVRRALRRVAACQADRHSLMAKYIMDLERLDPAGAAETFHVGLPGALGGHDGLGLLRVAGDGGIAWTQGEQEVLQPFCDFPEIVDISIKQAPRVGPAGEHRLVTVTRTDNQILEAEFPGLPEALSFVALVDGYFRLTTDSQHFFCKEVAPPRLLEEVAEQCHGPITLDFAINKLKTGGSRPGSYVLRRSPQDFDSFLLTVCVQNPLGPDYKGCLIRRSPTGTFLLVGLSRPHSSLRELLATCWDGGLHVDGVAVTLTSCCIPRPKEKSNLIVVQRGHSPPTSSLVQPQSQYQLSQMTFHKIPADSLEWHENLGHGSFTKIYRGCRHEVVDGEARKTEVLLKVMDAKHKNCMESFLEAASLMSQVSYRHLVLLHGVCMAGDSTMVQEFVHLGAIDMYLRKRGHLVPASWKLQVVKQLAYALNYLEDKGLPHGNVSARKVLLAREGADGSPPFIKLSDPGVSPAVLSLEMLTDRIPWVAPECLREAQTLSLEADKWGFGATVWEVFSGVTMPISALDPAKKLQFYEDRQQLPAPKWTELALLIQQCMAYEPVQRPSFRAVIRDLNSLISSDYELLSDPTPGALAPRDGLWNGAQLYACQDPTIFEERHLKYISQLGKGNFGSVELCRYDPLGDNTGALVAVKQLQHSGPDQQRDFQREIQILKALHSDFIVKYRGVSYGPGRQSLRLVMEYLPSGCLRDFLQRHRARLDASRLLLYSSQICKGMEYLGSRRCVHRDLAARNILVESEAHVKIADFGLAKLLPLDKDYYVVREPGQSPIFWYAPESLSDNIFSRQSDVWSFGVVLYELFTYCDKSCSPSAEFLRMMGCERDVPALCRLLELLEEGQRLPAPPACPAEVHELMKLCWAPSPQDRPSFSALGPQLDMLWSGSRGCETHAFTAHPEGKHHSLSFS
From the text: as §2, §3

Met = molecular target: T10, Met (Homo sapiens, UniProt P08581); assay: AlphaScreen kinase assay, Met; conditions: read-out: IC50, activity toward kinase Met
T10 construct: P1818.pETN6 BI-PTP MET G1056-G1364-X WT; His6 (N); made in house; host or cells: E. coli (PTP1B co-expressed)
Outline: as §1

c-Raf-1 = molecular target: T11, c-Raf-1 (Homo sapiens, UniProt P04049); assay: AlphaScreen kinase assay, c-Raf-1; conditions: read-out: IC50, activity toward kinase c-Raf-1
T11 construct: purchased Upstate Biotechnology
T11 sequence (P04049 whole entry): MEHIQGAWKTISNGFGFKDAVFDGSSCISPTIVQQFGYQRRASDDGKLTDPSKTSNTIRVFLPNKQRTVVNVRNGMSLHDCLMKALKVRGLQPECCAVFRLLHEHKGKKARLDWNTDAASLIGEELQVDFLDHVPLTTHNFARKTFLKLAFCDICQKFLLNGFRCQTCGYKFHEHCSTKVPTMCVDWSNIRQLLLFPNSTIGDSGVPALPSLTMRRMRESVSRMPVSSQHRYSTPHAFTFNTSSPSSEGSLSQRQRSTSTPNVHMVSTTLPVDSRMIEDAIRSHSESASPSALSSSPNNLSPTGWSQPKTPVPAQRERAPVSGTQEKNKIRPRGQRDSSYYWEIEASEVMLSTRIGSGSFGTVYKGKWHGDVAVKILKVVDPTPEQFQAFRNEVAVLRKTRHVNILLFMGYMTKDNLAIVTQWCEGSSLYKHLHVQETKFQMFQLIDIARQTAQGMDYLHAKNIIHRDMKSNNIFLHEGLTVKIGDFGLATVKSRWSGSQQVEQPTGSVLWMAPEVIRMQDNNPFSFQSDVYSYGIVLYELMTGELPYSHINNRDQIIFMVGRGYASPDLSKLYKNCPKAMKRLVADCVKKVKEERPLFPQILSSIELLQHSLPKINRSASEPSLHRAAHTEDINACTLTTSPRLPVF

B-Raf = molecular target: T12, B-Raf (Homo sapiens, UniProt P15056); assay: AlphaScreen kinase assay, B-Raf; conditions: read-out: IC50, activity toward kinase B-Raf
T12 construct: purchased Upstate Biotechnology
T12 sequence (P15056 whole entry): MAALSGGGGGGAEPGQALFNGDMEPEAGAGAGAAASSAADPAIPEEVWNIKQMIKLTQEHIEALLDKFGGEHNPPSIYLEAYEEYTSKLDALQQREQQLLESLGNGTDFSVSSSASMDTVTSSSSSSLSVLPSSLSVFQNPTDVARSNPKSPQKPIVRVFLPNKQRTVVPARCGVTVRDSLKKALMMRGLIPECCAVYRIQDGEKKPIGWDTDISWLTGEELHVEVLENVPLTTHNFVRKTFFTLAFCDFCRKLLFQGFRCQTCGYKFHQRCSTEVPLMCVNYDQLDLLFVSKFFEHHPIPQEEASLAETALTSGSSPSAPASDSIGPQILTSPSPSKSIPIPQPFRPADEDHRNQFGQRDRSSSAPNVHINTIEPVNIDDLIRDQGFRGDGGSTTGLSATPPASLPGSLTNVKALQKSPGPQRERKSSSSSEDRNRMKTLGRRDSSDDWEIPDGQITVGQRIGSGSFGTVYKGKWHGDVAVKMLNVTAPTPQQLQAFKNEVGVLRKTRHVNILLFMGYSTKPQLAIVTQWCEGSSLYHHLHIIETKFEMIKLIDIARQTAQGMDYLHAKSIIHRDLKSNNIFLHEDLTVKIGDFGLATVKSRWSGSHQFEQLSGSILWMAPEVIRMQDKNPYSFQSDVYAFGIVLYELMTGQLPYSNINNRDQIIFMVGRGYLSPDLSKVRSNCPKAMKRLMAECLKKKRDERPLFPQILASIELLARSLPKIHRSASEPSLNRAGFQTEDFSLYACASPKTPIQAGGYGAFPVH

Pyk2 = molecular target: T13, Pyk2 (Homo sapiens, UniProt Q14289); assay: AlphaScreen kinase assay, Pyk2; conditions: read-out: IC50, activity toward kinase Pyk2
T13 construct: purchased Upstate Biotechnology

FGFR1 = molecular target: T14, FGFR1 (Homo sapiens, UniProt P11362, C488A/C584S); assay: AlphaScreen kinase assay, FGFR1; conditions: read-out: IC50, activity toward kinase FGFR
T14 construct: P1351.pET N6 BI-PTP FGFR A458-E765-X C488A, C584S; made in house; host or cells: E. coli (PTP1B co-expressed)
T14 sequence (P11362 458-765 C488A/C584S): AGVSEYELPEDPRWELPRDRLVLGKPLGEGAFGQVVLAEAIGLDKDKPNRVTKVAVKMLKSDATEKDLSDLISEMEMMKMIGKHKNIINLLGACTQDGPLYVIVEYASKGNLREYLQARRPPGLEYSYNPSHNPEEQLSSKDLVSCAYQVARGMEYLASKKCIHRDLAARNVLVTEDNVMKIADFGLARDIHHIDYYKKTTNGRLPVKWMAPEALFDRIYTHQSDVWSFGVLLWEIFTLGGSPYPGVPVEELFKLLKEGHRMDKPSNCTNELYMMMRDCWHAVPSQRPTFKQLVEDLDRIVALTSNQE

IGF1R = IGF1R (Homo sapiens, UniProt P08069); assay: AlphaScreen kinase assay, IGF1R; conditions: read-out: IC50, activity toward kinase IGF1R

Measured: IC50

NC(=O)c1ccc(-c2ccnc3[nH]cc(C(=O)c4ccc(Cl)cc4)c23)cc1 [Compound P-0085]
≤ 10 µM: IKK beta | Ret | B-Raf V600E | Gsk3β | Plk1 | Btk | Kdr

Clc1ccc(Cc2c[nH]c3nccc(-c4ccsc4)c23)cn1 [Compound P-0123]
≤ 10 µM: Stk6 | Ret | Zap70 | Gsk3β | Plk1 | Kit

c1cc(-c2noc(C3CC3)n2)c2cc[nH]c2n1 [Compound P-0128]
≤ 10 µM: IKK beta | Stk6 | Plk1 | Kdr

NC(=O)c1cccc(-c2ccnc3[nH]cc(C(=O)c4ccc(Cl)cc4)c23)c1 [Compound P-0135]
≤ 10 µM: IKK beta | Ret | B-Raf V600E | Gsk3β | Plk1 | Btk | Kdr

OCc1cccc(-c2ccnc3[nH]cc(Sc4ccccc4)c23)c1 [Compound P-0146]
≤ 10 µM: Stk6 | B-Raf V600E | Jak3 | Plk1 | Met

CC(C)S(=O)(=O)Nc1ccc(F)c(C(O)c2c[nH]c3ncc(Br)cc23)c1F (stereo not drawn) [Compound P-0178]
≤ 10 µM: c-Raf-1 | B-Raf | B-Raf V600E | Jak3 | Plk1 | Pyk2 | FGFR1

COc1ccc(-c2cnc3[nH]ccc3c2)cc1OC [Compound P-0212]
≤ 10 µM: Stk6 | IGF1R | Kdr

O=C(c1cc(O)ccc1F)c1c[nH]c2nccc(-c3ccccc3)c12 [Compound P-0863]
≤ 10 µM: c-Raf-1 | Ret | B-Raf | B-Raf V600E | Jak3 | Plk1
